This assay has as its system colorectal cancer cell lines (e.g. DLD-1, HCT 116, SW620, HCT-15, HCT-8, RKO). Put plainly: Cell based assay, cell viability (CellTiter-Glo), colorectal cancer cell lines. As to the method:
Commercially available bladder cancer, prostate cancer, lung cancer, breast cancer, blood cancer, pancreatic cancer, colorectal cancer, brain cancer, neuroblastoma, melanoma, liver cancer, cervical carcinoma, ovarian cancer, renal cancer, and papilloma cell lines were each treated with trypsin-EDTA and cultured, followed by being seeded in each well of a 96 well plate. After 24 hours of treatment at constant temperature, the respective cells were treated with the candidate compound so that a final concentration became 0 to 2 μM. The treated cells were additionally cultured for 72 hours, and cell viability was measured by using an ATP detection method (CellTiter-Glo® Luminescent Cell Viability Assay, Promega).
A general note: Cellular ATP, detected with luciferase, serves as a proxy for viable cell number.

Setting [1] is: Homo sapiens, DLD-1, 72 hours treatment, read-out: IC50, colorectal cancer cell line DLD-1.
The mark [2] stands for this setting: Homo sapiens, HCT 116, 72 hours treatment, read-out: IC50, colorectal cancer cell line HCT 116.
Where [3] appears, read: Homo sapiens, HCT-8, 72 hours treatment, read-out: IC50, colorectal cancer cell line HCT-8.
The mark [4] stands for this setting: Homo sapiens, HCT-15, 72 hours treatment, read-out: IC50, colorectal cancer cell line HCT-15.
[5] abbreviates: Homo sapiens, HT-29, 72 hours treatment, read-out: IC50, colorectal cancer cell line HT-29.
[6] abbreviates: Homo sapiens, LoVo, 72 hours treatment, read-out: IC50, colorectal cancer cell line LoVo.
The mark [7] stands for this setting: Homo sapiens, SW480, 72 hours treatment, read-out: IC50, colorectal cancer cell line SW480.
The mark [8] stands for this setting: Homo sapiens, SW-620, SW620, 72 hours treatment, read-out: IC50, colorectal cancer cell line SW620.
The mark [9] stands for this setting: RKO, 72 hours treatment, read-out: IC50, colorectal cancer cell line RKO.
The mark [10] stands for this setting: Homo sapiens, DLD-1 cells, 72 hours treatment, read-out: IC50, colorectal cancer cell line DLD-1.
Where [11] appears, read: Homo sapiens, HCT 116 cells, 72 hours treatment, read-out: IC50, colorectal cancer cell line HCT 116.
The mark [12] stands for this setting: Homo sapiens, HCT-8 cells, 72 hours treatment, read-out: IC50, colorectal cancer cell line HCT-8.
Where [13] appears, read: Homo sapiens, HCT-15 cells, 72 hours treatment, read-out: IC50, colorectal cancer cell line HCT-15.
Setting [14] is: Homo sapiens, HT-29 cells, 72 hours treatment, read-out: IC50, colorectal cancer cell line HT-29.
The mark [15] stands for this setting: Homo sapiens, LoVo cells, 72 hours treatment, read-out: IC50, colorectal cancer cell line LoVo.
[16] abbreviates: Homo sapiens, RKO cells, 72 hours treatment, read-out: IC50, colorectal cancer cell line RKO.
Setting [17] is: Homo sapiens, SW480 cells, 72 hours treatment, read-out: IC50, colorectal cancer cell line SW480.
Setting [18] is: Homo sapiens, SW-620, SW620 cells, 72 hours treatment, read-out: IC50, colorectal cancer cell line SW620.

Here are results for eight compounds from patent US11464770B2, “Anticancer pharmaceutical composition” (NATIONAL CANCER CENTER, priority 2016, dated 2022).

As usually defined, the IC50 is the midpoint of a concentration-inhibition curve.

Read-outs that look alike come from different tables or passages of the source.

In the case of `CC(=O)c1c([S+]([O-])Cc2ccccc2)nc2c(Br)ccc(Cl)c2c1O` (stereo not drawn) [Compound 53, 1-(2-(benzylsulfinyl)-8-bromo-5-chloro-4-hydroxyquinolin-3-yl)ethan-1-one], the IC50 reads like this: under setting [1], above 2000 nM; under setting [2], above 2000 nM; under setting [3], above 2000 nM; under setting [4], above 2000 nM; under setting [5], above 10000 nM; under setting [6], above 2000 nM. Moreover, the IC50 was above 2000 nM under setting [7], above 2000 nM under setting [8] and above 2000 nM under setting [9].
For `CC(=O)c1c([S+]([O-])CC#N)[nH]c2c(Br)ccc(Cl)c2c1=O` (stereo not drawn) [Compound 65, 2-((3-acetyl-8-bromo-5-chloro-4-oxo-1,4-dihydroquinolin-2-yl)sulfinyl)acetonitrile], the IC50 was above 2000 nM under setting [1]; above 2000 nM under setting [2]; above 2000 nM under setting [3]; above 2000 nM under setting [4]; above 10000 nM under setting [5]; above 2000 nM under setting [6]. Further, the IC50 was above 2000 nM under setting [7], above 2000 nM under setting [8] and above 2000 nM under setting [9].
For the compound `COc1cccc2[nH]c(SCc3ccc(S(F)(F)(F)(F)F)cc3)c(C(C)=O)c(=O)c12` [Compound 92, 3-acetyl-5-methoxy-2-((4-(pentafluoro--sulfanyl)benzyl)thio)quinolin-4(1H)-one], the IC50 is above 2000 nM under setting [10]; above 2000 nM under setting [11]; above 2000 nM under setting [12]; above 2000 nM under setting [13]; above 10000 nM under setting [14]; above 2000 nM under setting [15]. Further, the IC50 under setting [16] is above 2000 nM, the IC50 under setting [17] was above 2000 nM and the IC50 under setting [18] was above 2000 nM.
In the case of `CSc1c(C(C)=O)c(=O)c2c(Cl)ccc(Br)c2n1S(=O)(=O)c1ccc(C(C)(C)C)cc1` [Compound 40, 3-acetyl-8-bromo-1-((4-(tert-butyl)phenyl)sulfonyl)-5-chloro-2-(methylthio)quinolin-4(1H)-one], the IC50 under setting [1] was above 2000 nM; the IC50 under setting [2] is above 2000 nM; the IC50 under setting [3] is above 2000 nM; the IC50 under setting [4] was above 2000 nM; the IC50 under setting [5] is above 10000 nM; the IC50 under setting [6] was above 2000 nM. In addition, the IC50 was above 2000 nM under setting [7], above 2000 nM under setting [8] and above 2000 nM under setting [9].
For the compound `COc1ccccc1[S+]([O-])c1[nH]c2c(Br)ccc(Cl)c2c(=O)c1C(C)=O` (stereo not drawn) [Compound 15, 3-acetyl-8-bromo-5-chloro-2-((2-methoxyphenyl)sulfinyl)quinolin-4(1H)-one], the IC50 reads like this: under setting [1], above 2000 nM; under setting [2], above 2000 nM; under setting [3], above 2000 nM; under setting [4], above 2000 nM; under setting [5], above 10000 nM; under setting [6], above 2000 nM. Besides, the IC50 was above 2000 nM under setting [7], above 2000 nM under setting [8] and above 2000 nM under setting [9].
Regarding `CC(=O)c1c([S+](C)[O-])[nH]c2c(Cl)ccc(Cl)c2c1=O` (stereo not drawn) [Compound 6, 3-acetyl-5,8-dichloro-2-(methylsulfinyl)quinolin-4(1H)-one], the IC50 is 700 nM under setting [1]; 1480 nM under setting [2]; above 2000 nM under setting [3]; 1700 nM under setting [4]; above 10000 nM under setting [5]; above 2000 nM under setting [6]. Moreover, the IC50 is above 2000 nM under setting [7], 1550 nM under setting [8] and 1840 nM under setting [9].
Regarding `Cc1cc(C[S+]([O-])c2[nH]c3c(Cl)ccc(Cl)c3c(=O)c2C(=O)c2ccccc2)no1` (stereo not drawn) [Compound 88, 3-benzoyl-5,8-dichloro-2-(((5-methylisoxazol-3-yl)methyl)sulfinyl)quinolin-4(1H)-one], the IC50 under setting [10] was above 2000 nM; the half-maximal inhibitory concentration (IC50) under setting [11] is above 2000 nM; the IC50 under setting [12] was above 2000 nM; the IC50 under setting [13] was above 2000 nM; the IC50 under setting [14] is above 10000 nM; the IC50 under setting [15] was above 2000 nM. Moreover, the IC50 under setting [16] was above 2000 nM, the IC50 under setting [17] was above 2000 nM and the IC50 under setting [18] is above 2000 nM.
On to `CC(=O)c1c(SCc2ccccc2)nc2c(Br)ccc(Cl)c2c1O` [Compound 52, 1-(2-(benzylthio)-8-bromo-5-chloro-4-hydroxyquinolin-3-yl)ethan-1-one], for which the IC50 by setting is: under setting [1], above 2000 nM; under setting [2], above 2000 nM; under setting [3], above 2000 nM; under setting [4], above 2000 nM; under setting [5], above 10000 nM; under setting [6], above 2000 nM. In addition, the IC50 is above 2000 nM under setting [7], above 2000 nM under setting [8] and above 2000 nM under setting [9].
